Molecules are shown by their SMILES. Where only a bound is given, the exact number is not on record here.

The assay addresses c-kit (Homo sapiens, UniProt P10721). As to the kind of experiment: c-kit assays of Examples 40 and 41 (AlphaScreen kinase assays at 10 and 100 μM ATP, 33P-ATP filter assay, M-07e SCF-stimulated proliferation and phosphorylation). In general terms: Bead proximity is the source of the signal in Alpha formats.

Sequence of c-kit (P10721 with tags, fused parts or gaps): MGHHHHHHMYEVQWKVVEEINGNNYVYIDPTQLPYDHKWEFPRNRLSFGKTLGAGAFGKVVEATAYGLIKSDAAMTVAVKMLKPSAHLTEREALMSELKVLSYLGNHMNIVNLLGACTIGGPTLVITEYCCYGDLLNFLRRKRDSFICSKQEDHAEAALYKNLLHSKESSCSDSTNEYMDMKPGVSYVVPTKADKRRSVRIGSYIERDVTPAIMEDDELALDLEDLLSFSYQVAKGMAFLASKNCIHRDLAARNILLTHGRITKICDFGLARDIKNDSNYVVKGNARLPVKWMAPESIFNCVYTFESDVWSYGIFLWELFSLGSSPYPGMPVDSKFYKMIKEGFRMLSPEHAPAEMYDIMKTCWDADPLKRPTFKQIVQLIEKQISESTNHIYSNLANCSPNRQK

With `COc1ncccc1CNc1ccc(Cc2c[nH]c3ncccc23)cn1` [P-0215, (2-Methoxy-pyridin-3-ylmethyl)-[5-(1H-pyrrolo[2,3-b]pyridin-3-ylmethyl)-pyridin-2-yl]-amine], the 50% inhibitory concentration (IC50) (in general, the point on the concentration scale where inhibition reaches its midpoint) was < 1000 nM.

On to `Clc1ccccc1CNc1ccc(Cc2c[nH]c3ncccc23)cn1` [P-0216, (2-Chloro-benzyl)-[5-(1H-pyrrolo[2,3-b]pyridin-3-ylmethyl)-pyridin-2-yl]-amine], for which the IC50 is < 1000 nM.

Turning to `Cc1ccccc1CNc1ccc(Cc2c[nH]c3ncccc23)cn1` [P-0217, (2-Methyl-benzyl)-[5-(1H-pyrrolo[2,3-b]pyridin-3-ylmethyl)-pyridin-2-yl]-amine], the 50% inhibitory concentration (IC50) is < 1000 nM.

For `Cn1c(CNc2ccc(Cc3c[nH]c4ncccc34)cn2)nc2ccccc21` [P-0218, (1-Methyl-1H-benzoimidazol-2-ylmethyl)-[5-(1H-pyrrolo[2,3-b]pyridin-3-ylmethyl)-pyridin-2-yl]-amine], the IC50 is < 1000 nM.

Take `COc1ccc(CNc2ccc(Cc3c[nH]c4ncccc34)cn2)cn1` [P-0219, (6-Methoxy-pyridin-3-ylmethyl)-[5-(1H-pyrrolo[2,3-b]pyridin-3-ylmethyl)-pyridin-2-yl]-amine]: the IC50 was < 1000 nM.

With `Fc1ccc(CNc2ccc(Cc3c[nH]c4ncccc34)cn2)c(Cl)c1` [P-0221, (2-Chloro-4-fluoro-benzyl)-[5-(1H-pyrrolo[2,3-b]pyridin-3-ylmethyl)-pyridin-2-yl]-amine], the 50% inhibitory concentration (IC50) was < 1000 nM.

For `COc1cncc(CNc2ccc(Cc3c[nH]c4ncccc34)cn2)c1` [P-0222, (5-Methoxy-pyridin-3-ylmethyl)-[5-(1H-pyrrolo[2,3-b]pyridin-3-ylmethyl)-pyridin-2-yl]-amine], the IC50 was < 1000 nM.

For the compound `COc1cccc(CNc2ccc(Cc3c[nH]c4ncccc34)cn2)n1` [P-0224, (6-Methoxy-pyridin-2-ylmethyl)-[5-(1H-pyrrolo[2,3-b]pyridin-3-ylmethyl)-pyridin-2-yl]-amine], the half-maximal inhibitory concentration (IC50) was < 1000 nM.

Take `Fc1ccc(CNc2ccc(Cc3c[nH]c4ncccc34)cn2)c(C(F)(F)F)c1` [P-0225, (4-Fluoro-2-trifluoromethyl-benzyl)-[5-(1H-pyrrolo[2,3-b]pyridin-3-ylmethyl)-pyridin-2-yl]-amine]: the IC50 is < 1000 nM.

Consider `FC(F)(F)c1ccccc1CNc1ccc(Cc2c[nH]c3ncccc23)cn1` [P-0226, [5-(1H-Pyrrolo[2,3-b]pyridin-3-ylmethyl)-pyridin-2-yl]-(2-trifluoromethyl-benzyl)-amine], for which the half-maximal inhibitory concentration (IC50) was < 1000 nM.

In the case of `c1cc(CNc2ccc(Cc3c[nH]c4ncccc34)cn2)nc(N2CCOCC2)c1` [P-0228, (6-Morpholin-4-yl-pyridin-2-ylmethyl)-[5-(1H-pyrrolo[2,3-b]pyridin-3-ylmethyl)-pyridin-2-yl]-amine], the 50% inhibitory concentration (IC50) is < 1000 nM.

On to `Cc1cnc2[nH]cc(Cc3ccc(NCc4ccc(C(F)(F)F)nc4)nc3Cl)c2c1` [P-0234, [6-Chloro-5-(5-methyl-1H-pyrrolo[2,3-b]pyridin-3-ylmethyl)-pyridin-2-yl]-(6-trifluoromethyl-pyridin-3-ylmethyl)-amine], for which the IC50 is < 1000 nM.

`Clc1cnc2[nH]cc(Cc3sc(NCc4ccncc4)nc3Cl)c2c1` [P-0237, [4-Chloro-5-(5-chloro-1H-pyrrolo[2,3-b]pyridin-3-ylmethyl)-thiazol-2-yl]-pyridin-4-ylmethyl-amine]: the IC50 is < 1000 nM.

`CCn1cc(CNc2nc(Cl)c(Cc3c[nH]c4ncc(Cl)cc34)s2)cn1` [P-0239, [4-Chloro-5-(5-chloro-1H-pyrrolo[2,3-b]pyridin-3-ylmethyl)-thiazol-2-yl]-(1-ethyl-1H-pyrazol-4-ylmethyl)-amine]: the half-inhibitory concentration (IC50) was < 1000 nM.

Take `FC(F)(F)c1ccc(CNc2nc(Cl)c(Cc3c[nH]c4ncc(Cl)cc34)s2)cn1` [P-0242, [4-Chloro-5-(5-chloro-1H-pyrrolo[2,3-b]pyridin-3-ylmethyl)-thiazol-2-yl]-(6-trifluoromethyl-pyridin-3-ylmethyl)-amine]: the half-inhibitory concentration (IC50) is < 1000 nM.

As for `Fc1cccc(Cl)c1CNc1nc(Cl)c(Cc2c[nH]c3ncc(Cl)cc23)s1` [P-0243, [4-Chloro-5-(5-chloro-1H-pyrrolo[2,3-b]pyridin-3-ylmethyl)-thiazol-2-yl]-(2-chloro-6-fluoro-benzyl)-amine], the IC50 was < 1000 nM.

Consider `Clc1cnc2[nH]cc(Cc3sc(NCCc4ccccc4)nc3Cl)c2c1` [P-0244, [4-Chloro-5-(5-chloro-1H-pyrrolo[2,3-b]pyridin-3-ylmethyl)-thiazol-2-yl]-phenethyl-amine], for which the concentration for half-maximal inhibition (IC50) is < 1000 nM.

`Fc1ccc(CNc2nc(Cl)c(Cc3c[nH]c4ncc(Cl)cc34)s2)c(F)c1` [P-0245, [4-Chloro-5-(5-chloro-1H-pyrrolo[2,3-b]pyridin-3-ylmethyl)-thiazol-2-yl]-(2,4-difluoro-benzyl)-amine]: the IC50 was < 1000 nM.

For the compound `Fc1ccccc1CNc1nc(Cl)c(Cc2c[nH]c3ncc(Cl)cc23)s1` [P-0246, [4-Chloro-5-(5-chloro-1H-pyrrolo[2,3-b]pyridin-3-ylmethyl)-thiazol-2-yl]-(2-fluoro-benzyl)-amine], the 50% inhibitory concentration (IC50) is < 1000 nM.

For the compound `Clc1cnc2[nH]cc(Cc3sc(NCc4cccc(N5CCOCC5)n4)nc3Cl)c2c1` [P-0252, [4-Chloro-5-(5-chloro-1H-pyrrolo[2,3-b]pyridin-3-ylmethyl)-thiazol-2-yl]-(6-morpholin-4-yl-pyridin-2-ylmethyl)-amine], the IC50 is < 1000 nM.

Take `Clc1cnc2[nH]cc(Cc3sc(NCc4c(Cl)cncc4Cl)nc3Cl)c2c1` [P-0253, [4-Chloro-5-(5-chloro-1H-pyrrolo[2,3-b]pyridin-3-ylmethyl)-thiazol-2-yl]-(3,5-dichloro-pyridin-4-ylmethyl)-amine]: the concentration for half-maximal inhibition (IC50) is < 1000 nM.

In the case of `N#Cc1cnc2[nH]cc(Cc3ccc(NCc4ccc(Cl)cc4)nc3)c2c1` [P-0257, 3-[6-(4-Chloro-benzylamino)-pyridin-3-ylmethyl]-1H-pyrrolo[2,3-b]pyridine-5-carbonitrile], the IC50 was < 1000 nM.

Consider `CCCS(=O)(=O)Nc1ccc(F)c(CNc2ccc(Cc3c[nH]c4ncccc34)cn2)c1F` [P-0258, propane-1-sulfonic acid (2,4-difluoro-3-[5-(1H-pyrrolo[2,3-b]pyridin-3-ylmethyl)-pyridin-2-ylamino]-methyl-phenyl)-amide], for which the IC50 is < 1000 nM.

As to `CCCS(=O)(=O)Nc1ccc(F)c(CNc2ccc(Cc3c[nH]c4ncc(Cl)cc34)cn2)c1F` [P-0259, Propane-1-sulfonic acid (3-{[5-(5-chloro-1H-pyrrolo[2,3-b]pyridin-3-ylmethyl)-pyridin-2-ylamino]-methyl}-2,4-difluoro-phenyl)-amide], the IC50 is < 1000 nM.

On to `Clc1ccc(CNc2ncc(Cc3c[nH]c4ncc(Cl)cc34)cn2)cc1` [P-0260, (4-Chloro-benzyl)-[5-(5-chloro-1H-pyrrolo[2,3-b]pyridin-3-ylmethyl)-pyrimidin-2-yl]-amine], for which the IC50 is < 1000 nM.

Take `FC(F)(F)c1ccccc1CNc1ncc(Cc2c[nH]c3ncc(Cl)cc23)cn1` [P-0262, [5-(5-Chloro-1H-pyrrolo[2,3-b]pyridin-3-ylmethyl)-pyrimidin-2-yl]-(2-trifluoromethyl-benzyl)-amine]: the IC50 is < 1000 nM.

As to `Clc1cnc2[nH]cc(Cc3cnc(NCc4ccccc4Cl)nc3)c2c1` [P-0263, (2-Chloro-benzyl)-[5-(5-chloro-1H-pyrrolo[2,3-b]pyridin-3-ylmethyl)-pyrimidin-2-yl]-amine], the IC50 is < 1000 nM.

The values are drawn from patent publication US9487515B2, “Compounds modulating c-fms and/or c-kit activity and uses therefor” (Plexxikon Inc., priority 2006, dated 2016).
